{"source": "patent US9249132B2", "about": "“Substituted bicyclic aromatic compounds as S-nitrosoglutathione reductase inhibitors” (Nivalis Therapeutics, Inc., priority 2010, dated 2016)", "system": "dextran sodium sulfate (DSS)-induced IBD", "experiment": "Acute prophylactic model of DSS-induced IBD", "type": "in vivo, mouse", "from_the_text": "Acute and chronic models of dextran sodium sulfate (DSS)-induced IBD in mice were used to explore efficacy of GSNORi against this disease. Acute and chronic DSS-induced IBD are widely used and well characterized models that induce pathological changes in the colon similar to those observed in the human disease. In these models and in human disease, epithelial cells within the crypts of the colon are disrupted, leading to dysfunction of the epithelial barrier and the ensuing tissue inflammation, edema, and ulceration. GSNORi therapy may benefit IBD by restoring s-nitrosoglutathione (GSNO) levels, and thus prevent or reverse the epithelial barrier dysfunction. Experimental IBD was induced by administration of DSS in the drinking water of male C57B1/6 mice (N=8 to 10 mice per group) for 6 consecutive days. GSNORi was dosed orally at doses of 0.1 to 10 mg/kg/day for 10 days starting two days prior to and continuing two days post DSS exposure. Two days post DSS exposure, the effect of GSNORi was assessed in a blinded fashion via endoscopy and histopathology using a five point scale ranging from a score=0 (normal tissue) through a score=4 (ulcerative tissue damage and marked pathological changes). Levels of circulating cytokines involved in inflammatory pathways were also assessed. The effect of GSNORi was compared to vehicle treated controls. The corticosteroid, prednisolone, was used as the positive control in this study and was administered daily at 3 mg/kg/day via oral dosing. Naïve mice (N=5) were also assessed as a normal tissue control.", "key": {"[1]": {"details": "acute model, oral 1 mg/kg/day for 10 consecutive days, prophylactic dosing regimen"}}}
{"compound": "O=C(O)c1ccc(-c2ccc3cc(O)ccc3c2)c(Cl)c1", "note": "[Example 1, 3-chloro-4-(6-hydroxynaphthalen-2-yl)benzoic acid]", "values": [{"measurement": "colon injury (in words)", "setting": "acute DSS-induced IBD", "result": "attenuated colon injury"}, {"measurement": "decrease of percent of mice presenting with severe colon injury scores via endoscopy, of vehicle control", "setting": "[1]", "result": 17, "unit": "%"}, {"measurement": "decrease of percent of mice presenting with severe colon injury scores via histopathology, of vehicle control", "setting": "[1]", "result": 21, "unit": "%"}, {"measurement": "decrease of percent of mice presenting with severe endoscopy scores, of vehicle control", "setting": "acute model, oral 10 mg/kg/day for 10 days, p<0.05", "result": 72, "unit": "%"}]}
